US20260174858A1, “TARGETING THE m6A MRNA DEMETHYLASE FTO” (University of Virginia Patent Foundation, priority 2022, published 2026)

How the values were obtained:
Vegfa mRNA = experiment: MeRIP-qPCR of m6A methylated Vegfa mRNA in BMDMs; type: cell-based, mouse; conditions: BMDMs treated with FTOi vs DMSO, MeRIP and qPCR
Description: To validate m6A methylation of Vegfa mRNA and perturbations induced by FTOi treatment, we performed MeRIP-qPCR by following the EpiMark® N6-Methyladenosine Enrichment Kit protocol (New England Biolabs, E1610S, USA). Briefly, total RNA was extracted from mouse BMDMs treated with 5 μM of FTO inhibitor or vehicle for 24 hours by using TRIzol™ Reagent (Thermo Fisher Scientific, 15596018, USA). 100 μg of total RNA from each group was mixed with unmodified RNA (Negative control, NC). Next, 20 μg of these mixtures was incubated with m6A antibody (Cell Signaling Technology, D9D9W, USA) and then pulled down using Pierce™ Protein A/G Magnetic Beads (Thermo Fisher Scientific, 88802, USA) overnight. The enriched m6A positive RNAs were then eluted and purified by NucleoSpin RNA Clean-Up (Macherey-Nagel, 740948.25, USA), and the amounts of m6A-modified Vegfa mRNA or negative control RNAs were determined by reverse transcription and qPCR.

human ARPE-19 cells = experiment: VEGFA release in human ARPE-19 cells; type: cell-based
Wild type C57BL/6J mice = experiment: VEGFA ELISA of RPE-choroid after laser injury; type: in vivo, mouse; conditions: FTOi i.p. plus 25 ng intravitreous, day 3 after laser injury
Description: Laser photocoagulation (532 nm, 180 mW, 100 ms, 75 μm) (OcuLight GL; IRIDEX Corp., Mountain View, CA, USA) was performed bilaterally (volume studies: 4 spots per eye; RNA analyses: 10 spots per eye) in 6- to 8-week-old mice on day 0 to induce CNV as previously described 1-3. For drug treatment, the mice pretreated with FTO inhibitor (FB23-2, SML2694, Sigma) or vehicle (DMSO) through intraperitoneal injection (i.p, 2 mg/kg). Then, the mice were subjected to laser photocoagulation followed by intravitreous injection of the FTO inhibitor (25 ng/0.5 μl per eye) or vehicle. At day 3 after laser injury, the mice were administered the FTO inhibitor (2 mg/kg) or vehicle via intraperitoneal injection. At day 7, the eyes were collected for fluorescein labeled-isolectin B4 and F4/80 staining and for neovascular volume quantification.
The RPE-choroid complex was isolated from mouse eyes on day 3 after laser injury and treatment with FTO inhibitor or vehicle. […] The lysate was centrifuged at 20,000×g for 15 minutes at 4° C., and total protein in the lysates was quantified using the Thermo Scientific™ Pierce™ BCA™ Protein Assay (Fisher Scientific, PI23225, USA). VEGFA protein levels in the supernatants were measured by VEGF DuoSet ELISA (R&D Systems, DY493, USA), following the manufacturer's instructions. […]

In vivo retinal toxicity = conditions: FTO inhibition
mouse BMDMs = experiment: VEGFA release in mouse BMDMs (ELISA); type: cell-based; conditions: FTOi 20 uM 12 hours, with or without LPS 250 ng/ml 6 hours, supernatant ELISA
Description: Primary WT or mutant mouse bone marrow derived macrophages (BMDMs) were isolated as previously described (4). BMDMs were cultured in IMDM (Gibco) basal medium containing 10% fetal bovine serum (FBS), 30% L929 supernatants, nonessential amino acids, sodium pyruvate, 2-mercaptoethanol, and antibiotics. THP-1 cells were cultured in RPMI 1640 medium with 10% FBS and antibiotics. Human RPE cells were isolated as previously described and cultured in DMEM medium with 10% FBS and antibiotics. All cells were maintained at 37° C. in a 5% CO2 environment.
The RPE-choroid complex was isolated from mouse eyes on day 3 after laser injury and treatment with FTO inhibitor or vehicle. Eye tissues were lysed by sonication with immunoprecipitation assay (RIPA) buffer (Sigma-Aldrich, R0278, USA) containing protease inhibitor (Sigma-Aldrich, 11836170001, USA), on ice for 15 minutes. The lysate was centrifuged at 20,000×g for 15 minutes at 4° C., and total protein in the lysates was quantified using the Thermo Scientific™ Pierce™ BCA™ Protein Assay (Fisher Scientific, PI23225, USA). VEGFA protein levels in the supernatants were measured by VEGF DuoSet ELISA (R&D Systems, DY493, USA), following the manufacturer's instructions. Mouse BMDMs or human THP-1 cells (5×10^5 cells per well) were plated into six-well plates in complete medium and allowed to adhere overnight. Cells were then incubated for 24 hours in the absence or presence of various doses of FTO inhibitor or METTL3 inhibitors (STM2457, Selleck Chemicals). […] The siRNAs (siFto: 5′-P.G.A.G.G.A.U.C.C.A.A.G.G.C.A.A.A.G.A.U.dT.dT 3′ (SEQ ID NO: 38); siCtrl: 5′-P.U.A.A.G.G.C.U.A.U.G.A.A.G.A.G.A.U.dT.dT 3′; SEQ ID NO: 39), were designed and synthesized by GE Healthcare Dharmacon, were transfected twice with BMDMs by using DharmaFECT 4 Transfection Reagent (Dharmacon, T-2004, USA). VEGFA levels in the supernatants were measured by mouse or human VEGF DuoSet ELISA (R&D Systems, DY493 or DY293B, USA), following the manufacturer's instructions.

## Cc1noc(C)c1-c1cc(Cl)c(Nc2ccccc2C(=O)NO)c(Cl)c1 [FB23-2]
Vegfa mRNA
  Level of m6A methylated Vegfa mRNA: increase the level of methylated (m6A) VEGFA mRNA
Vegfa mRNA; listed as FTO inhibitor
  Level of m6A methylated Vegfa mRNA: significantly increased the abundance of m6A methylated Vegfa mRNA
Human ARPE-19 cells
  VEGFA release: suppressed the VEGFA release
Wild type C57BL/6J mice
  VEGFA protein levels in laser treated RPE-choroid tissue: inhibits VEGFA release in vivo
Wild type C57BL/6J mice; listed as selective inhibitor
  VEGFA protein levels in laser treated RPE-choroid tissue: suppressed VEGFA protein levels
In vivo retinal toxicity
  In vivo retinal toxicity: did not observe in vivo retinal toxicity
Mouse BMDMs
  VEGFA release: inhibits VEGFA release
Mouse BMDMs; listed as FTO inhibitor
  VEGFA release: reduction in mouse VEGFA release
